# Data reported in ChEMBL document CHEMBL1141668, “Synthesis and biological activity of imidazopyridine anticoccidial agents: Part II” (Eur J Med Chem, 2008).
# Experiments:
# [1] = tested on: Eimeria tenella; test: Anticoccidial activity against Eimeria tenella in chickens assessed as reduction of oocysts at 6 ppm measured after 8 days by ExMAC assay relative to untreated control; assay type: functional; parameters: scale not given: the % may be the effect or the level left
# [2] = biological target: cGMP-dependent protein kinase (Eimeria tenella, UniProt Q8MMZ8); test: Inhibition of Eimeria tenella cGMP-dependent protein kinase
# [3] = tested on: Eimeria maxima; test: Anticoccidial activity against Eimeria maxima in chickens assessed as reduction of oocysts at 6 ppm measured after 8 days by ExMAC assay relative to untreated control; assay type: functional; parameters: scale not given: the % may be the effect or the level left
# [4] = tested on: Eimeria maxima; test: Anticoccidial activity against Eimeria maxima in chickens assessed as reduction of oocysts at 3 ppm measured after 8 days by ExMAC assay relative to untreated control; assay type: functional; parameters: scale not given: the % may be the effect or the level left
# [5] = tested on: Eimeria acervulina; test: Anticoccidial activity against Eimeria acervulina in chickens assessed as reduction of oocysts at 3 ppm measured after 8 days by ExMAC assay relative to untreated control; assay type: functional; parameters: scale not given: the % may be the effect or the level left
# [6] = tested on: Eimeria maxima; test: Anticoccidial activity against Eimeria maxima in chickens assessed as reduction of oocysts at 12 ppm measured after 8 days by ExMAC assay relative to untreated control; assay type: functional; parameters: scale not given: the % may be the effect or the level left
# [7] = tested on: Eimeria acervulina; test: Anticoccidial activity against Eimeria acervulina in chickens assessed as reduction of oocysts at 12 ppm measured after 8 days by ExMAC assay relative to untreated control; assay type: functional; parameters: scale not given: the % may be the effect or the level left
# [8] = tested on: Eimeria mitis; test: Anticoccidial activity against Eimeria mitis in chickens assessed as reduction of oocysts at 3 ppm measured after 8 days by ExMAC assay relative to untreated control; assay type: functional; parameters: scale not given: the % may be the effect or the level left
# [9] = tested on: Eimeria mitis; test: Anticoccidial activity against Eimeria mitis in chickens assessed as reduction of oocysts at 6 ppm measured after 8 days by ExMAC assay relative to untreated control; assay type: functional; parameters: scale not given: the % may be the effect or the level left
# [10] = tested on: Eimeria tenella; test: Anticoccidial activity against Eimeria tenella in chickens assessed as reduction of oocysts at 12 ppm measured after 8 days by ExMAC assay relative to untreated control; assay type: functional; parameters: scale not given: the % may be the effect or the level left
# [11] = tested on: Eimeria acervulina; test: Anticoccidial activity against Eimeria acervulina in chickens assessed as reduction of oocysts at 6 ppm measured after 8 days by ExMAC assay relative to untreated control; assay type: functional; parameters: scale not given: the % may be the effect or the level left
# [12] = tested on: Eimeria mitis; test: Anticoccidial activity against Eimeria mitis in chickens assessed as reduction of oocysts at 12 ppm measured after 8 days by ExMAC assay relative to untreated control; assay type: functional; parameters: scale not given: the % may be the effect or the level left
# [13] = tested on: Eimeria tenella; test: Anticoccidial activity against Eimeria tenella in chickens assessed as reduction of oocysts at 3 ppm measured after 8 days by ExMAC assay relative to untreated control; assay type: functional; parameters: scale not given: the % may be the effect or the level left
# [14] = tested on: Eimeria tenella; test: Anticoccidial activity against Eimeria tenella in chickens assessed as reduction of oocysts at 50 ppm measured after 8 days by ExMAC assay relative to untreated control; assay type: functional; parameters: scale not given: the % may be the effect or the level left
# [15] = tested on: Eimeria mitis; test: Anticoccidial activity against Eimeria mitis in chickens assessed as reduction of oocysts at 50 ppm measured after 8 days by ExMAC assay relative to untreated control; assay type: functional; parameters: scale not given: the % may be the effect or the level left
# [16] = tested on: Eimeria acervulina; test: Anticoccidial activity against Eimeria acervulina in chickens assessed as reduction of oocysts at 50 ppm measured after 8 days by ExMAC assay relative to untreated control; assay type: functional; parameters: scale not given: the % may be the effect or the level left
# [17] = tested on: Eimeria maxima; test: Anticoccidial activity against Eimeria maxima in chickens assessed as reduction of oocysts at 50 ppm measured after 8 days by ExMAC assay relative to untreated control; assay type: functional; parameters: scale not given: the % may be the effect or the level left
# [18] = tested on: Eimeria acervulina; test: Anticoccidial activity against Eimeria acervulina in chickens assessed as reduction of oocysts at 4 ppm measured after 8 days by ExMAC assay relative to untreated control; assay type: functional; parameters: scale not given: the % may be the effect or the level left
# [19] = tested on: Eimeria maxima; test: Anticoccidial activity against Eimeria maxima in chickens assessed as reduction of oocysts at 2 ppm measured after 8 days by ExMAC assay relative to untreated control; assay type: functional; parameters: scale not given: the % may be the effect or the level left
# [20] = tested on: Eimeria mitis; test: Anticoccidial activity against Eimeria mitis in chickens assessed as reduction of oocysts at 1 ppm measured after 8 days by ExMAC assay relative to untreated control; assay type: functional; parameters: scale not given: the % may be the effect or the level left
# [21] = tested on: Eimeria tenella; test: Anticoccidial activity against Eimeria tenella in chickens assessed as reduction of oocysts at 2 ppm measured after 8 days by ExMAC assay relative to untreated control; assay type: functional; parameters: scale not given: the % may be the effect or the level left
# [22] = tested on: Eimeria acervulina; test: Anticoccidial activity against Eimeria acervulina in chickens assessed as reduction of oocysts at 2 ppm measured after 8 days by ExMAC assay relative to untreated control; assay type: functional; parameters: scale not given: the % may be the effect or the level left
# [23] = tested on: Eimeria maxima; test: Anticoccidial activity against Eimeria maxima in chickens assessed as reduction of oocysts at 1 ppm measured after 8 days by ExMAC assay relative to untreated control; assay type: functional; parameters: scale not given: the % may be the effect or the level left
# [24] = tested on: Eimeria maxima; test: Anticoccidial activity against Eimeria maxima in chickens assessed as reduction of oocysts at 4 ppm measured after 8 days by ExMAC assay relative to untreated control; assay type: functional; parameters: scale not given: the % may be the effect or the level left
# [25] = tested on: Eimeria tenella; test: Anticoccidial activity against Eimeria tenella in chickens assessed as reduction of oocysts at 4 ppm measured after 8 days by ExMAC assay relative to untreated control; assay type: functional; parameters: scale not given: the % may be the effect or the level left
# [26] = tested on: Eimeria mitis; test: Anticoccidial activity against Eimeria mitis in chickens assessed as reduction of oocysts at 2 ppm measured after 8 days by ExMAC assay relative to untreated control; assay type: functional; parameters: scale not given: the % may be the effect or the level left
# [27] = tested on: Eimeria tenella; test: Anticoccidial activity against Eimeria tenella in chickens assessed as reduction of oocysts at 1 ppm measured after 8 days by ExMAC assay relative to untreated control; assay type: functional; parameters: scale not given: the % may be the effect or the level left
# [28] = tested on: Eimeria acervulina; test: Anticoccidial activity against Eimeria acervulina in chickens assessed as reduction of oocysts at 1 ppm measured after 8 days by ExMAC assay relative to untreated control; assay type: functional; parameters: scale not given: the % may be the effect or the level left
# [29] = tested on: Eimeria mitis; test: Anticoccidial activity against Eimeria mitis in chickens assessed as reduction of oocysts at 4 ppm measured after 8 days by ExMAC assay relative to untreated control; assay type: functional; parameters: scale not given: the % may be the effect or the level left
# Chain of cGMP-dependent protein kinase (Q8MMZ8 whole entry): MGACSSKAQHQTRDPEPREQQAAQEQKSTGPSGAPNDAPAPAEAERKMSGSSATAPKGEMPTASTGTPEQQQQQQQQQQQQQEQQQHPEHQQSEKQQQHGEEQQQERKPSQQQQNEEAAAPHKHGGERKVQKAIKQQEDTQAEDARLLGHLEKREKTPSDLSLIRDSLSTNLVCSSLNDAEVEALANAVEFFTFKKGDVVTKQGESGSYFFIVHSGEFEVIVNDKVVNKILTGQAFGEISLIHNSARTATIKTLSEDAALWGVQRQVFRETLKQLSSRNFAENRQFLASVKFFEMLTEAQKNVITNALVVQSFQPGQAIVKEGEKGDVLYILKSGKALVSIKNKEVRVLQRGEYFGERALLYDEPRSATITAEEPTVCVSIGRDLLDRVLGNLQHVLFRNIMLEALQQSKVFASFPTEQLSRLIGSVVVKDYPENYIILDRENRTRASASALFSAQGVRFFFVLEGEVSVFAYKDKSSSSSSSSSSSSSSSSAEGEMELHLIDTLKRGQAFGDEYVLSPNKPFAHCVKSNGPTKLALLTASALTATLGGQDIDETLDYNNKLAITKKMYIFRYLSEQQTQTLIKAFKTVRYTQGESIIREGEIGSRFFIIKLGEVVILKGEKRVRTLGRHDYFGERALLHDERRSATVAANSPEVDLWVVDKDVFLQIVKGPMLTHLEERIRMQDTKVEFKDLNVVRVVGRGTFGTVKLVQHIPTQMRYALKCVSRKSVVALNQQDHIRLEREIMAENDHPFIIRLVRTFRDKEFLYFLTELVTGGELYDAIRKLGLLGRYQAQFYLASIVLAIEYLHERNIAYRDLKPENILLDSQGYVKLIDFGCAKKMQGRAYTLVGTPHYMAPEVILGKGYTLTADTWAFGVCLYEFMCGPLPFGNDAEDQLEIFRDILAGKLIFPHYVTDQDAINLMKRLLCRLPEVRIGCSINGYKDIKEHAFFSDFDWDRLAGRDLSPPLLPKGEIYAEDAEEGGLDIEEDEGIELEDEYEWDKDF
structure (smiles),measurement,setting,value
CC(C)(N)c1ccn2c(-c3ccnc(N)n3)c(-c3ccc(F)cc3)nc2c1,Activity,[1],80%
same,IC50,[2],0.145 nM
same,Activity,[3],80%
same,Activity,[4],80%
same,Activity,[5],50%
same,Activity,[6],100%
same,Activity,[7],80%
same,Activity,[8],<50%
same,Activity,[9],<50%
same,Activity,[10],100%
same,Activity,[11],80%
same,Activity,[12],<50%
same,Activity,[13],<50%
NC(=O)c1ccn2c(-c3ccnc(N)n3)c(-c3ccc(F)cc3)nc2c1,Activity,[14],80%
same,IC50,[2],1.8 nM
same,Activity,[15],<50%
same,Activity,[16],<50%
same,Activity,[17],50%
"CC(c1ccn2c(-c3ccnc(N)n3)c(-c3ccc(F)cc3)nc2c1)N(C)C (single isomer, unassigned; enantiomer B)",Activity,[18],80%
same,IC50,[2],0.067 nM
same,Activity,[19],80%
same,Activity,[20],<50%
same,Activity,[21],80%
same,Activity,[22],100%
same,Activity,[23],100%
same,Activity,[24],100%
same,Activity,[25],80%
same,Activity,[26],80%
same,Activity,[27],50%
same,Activity,[28],80%
same,Activity,[29],80%
